These results are taken from paper PMC4491177, “Co-translational capturing of nascent ribosomal proteins by their dedicated chaperones” (Nature Communications, 2015).

Ends that are not written are not given here.

The target of assay [1] is T1, ScSqt1.53C (WD-repeat β-propeller domain of Sqt1) (Saccharomyces cerevisiae, UniProt P35184).
T1 construct: ScSqt1.53C (residues 53–431); (His)6 (C); made in house; host or cells: E. coli Rosetta(DE3)
T1 sequence (P35184 53-431): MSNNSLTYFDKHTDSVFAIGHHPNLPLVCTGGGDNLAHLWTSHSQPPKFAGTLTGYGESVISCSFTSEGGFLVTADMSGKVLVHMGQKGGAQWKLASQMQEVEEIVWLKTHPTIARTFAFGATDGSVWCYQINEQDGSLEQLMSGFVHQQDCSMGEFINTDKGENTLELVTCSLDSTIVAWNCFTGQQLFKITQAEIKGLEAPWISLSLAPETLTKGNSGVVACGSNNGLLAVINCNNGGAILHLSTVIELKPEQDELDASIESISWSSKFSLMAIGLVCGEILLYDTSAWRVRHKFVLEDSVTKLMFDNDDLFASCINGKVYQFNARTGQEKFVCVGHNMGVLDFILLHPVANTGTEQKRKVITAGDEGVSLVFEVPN
Nature of the assay: isothermal titration calorimetry (ITC), S. cerevisiae. To be noted: for K / N / ΔH / ΔS: ScSqt1.53C, 15 °C, One Set of Sites fit. The format is binding. Here is the method: ITC experiments were performed on a MicroCal ITC 2000 instrument (GE Healthcare). The following peptides, corresponding to the N-terminal 19 (without N-terminal methionine) or 20 amino acids of S. cerevisiae and C. thermophilum Rpl10, were synthesized with a free acid group at the C terminus (peptides&elephants): Rpl10(1–20) NH2-[…]-COOH, Rpl10(2–20) NH2-[…]-COOH, ctRpl10(1–20) NH2-[…]-COOH and ctRpl10(2–20) NH2-[…]-COOH. Peptides (1 mg each) were dissolved in the appropriate volume of gel-filtration buffer (20 mM HEPES–NaOH (pH 7.5), 200 mM NaCl, 20 mM KCl and 20 mM MgCl2), which was used for the purification of ScSqt1.53C and ctSqt1.52C, to obtain 1 mM stock solutions. Concentrations of proteins were determined by measuring the A280 using a NanoDrop Lite spectrophotometer (Thermo Scientific). For determination of the C. thermophilum Sqt1/L10-N binding, 200 μl of ctSqt1.52C (10 μM) was added to the sample cell and 2 μl of 100 μM solutions of the peptides was titrated in at 25 °C. For determination of the S. cerevisiae Sqt1/L10-N binding, 200 μl of ScSqt1.53C (100 μM) was added to the sample cell and 2 μl of 1 mM solutions of the peptides were titrated in at 15 °C. ITC data were processed using the Origin ITC Software (OriginLab) and thermodynamic parameters were obtained by fitting the data to a One Set of Sites binding model.
For orientation: ITC needs no label: the signal is the heat of the interaction.

Assay [2] relates to Sqt1. Nature of the assay: Y2H interaction with Sqt1. Format: binding, S. cerevisiae. To be noted: reporter strain PJ69-4A, HIS3 and ADE2 reporters, 3 days at 30 °C. The protocol:
For Y2H interaction assays, plasmids expressing bait proteins, fused to the Gal4 DNA-binding domain (G4BD), and prey proteins, fused to the Gal4 activation domain (G4AD), were co-transformed into reporter strain PJ69-4A. Y2H interactions were documented by spotting representative transformants in 10-fold serial dilution steps onto SC-Trp-Leu, SC-Trp-Leu-His (HIS3 reporter) and SC-Trp-Leu-Ade (ADE2 reporter) plates, which were incubated for 3 days at 30 °C. Growth on SC-Trp-Leu-His plates is indicative of a weak/moderate interaction, whereas only relatively strong interactions permit growth on SC-Trp-Leu-Ade plates.

For assay [3], the system named is Sqt1-Flag. Nature of the assay: in vitro binding assay, Ni-affinity co-purification of Sqt1-Flag. Details: species or system S. cerevisiae. To be noted: co-expression in E. coli, C-terminally (His)6-tagged Rpl10, Ni-affinity, SDS–PAGE and western blot. Here is the method:
For in vitro binding assays between Rpl10-(His)6 and Sqt1-Flag or between ctRpl10-(His)6 and ctSqt1, proteins were co-expressed from pETDuet-1 (Novagen) in Rosetta(DE3) (Novagen) or BL21(DE3) (Novagen) E. coli cells, respectively. Cells were grown in 200 ml of lysogeny broth medium and protein expression was induced at an OD600 of ∼0.6–0.8 by the addition of isopropyl-β-D-thiogalactoside to a final concentration of 0.5 mM. After 5 h of growth at 30 °C, cells were harvested and stored at −80 °C. Cells were resuspended in 25 ml lysis buffer (50 mM Tris-HCl (pH 7.5), 200 mM NaCl, 1.5 mM MgCl2 and 5% glycerol) and lysed with a M-110L Microfluidizer (Microfluidics). The lysate (30 ml volume) was adjusted by the addition of 300 μl 10% NP-40 to 0.1% NP-40 (note that from here onwards all buffers contained 0.1% NP-40). An aliquot of 100 μl of total extract (sample T) was taken and mixed with 100 μl of 6 × loading buffer. The total extract was then centrifuged at 4 °C for 20 min at 14,000 r.p.m. The soluble extract was transferred to a 50-ml Falcon tube and, as above, an aliquot of 100 μl of soluble extract (sample S) was taken and mixed with 100 μl of 6 × loading buffer. The insoluble pellet fraction (sample P) was resuspended in 3 ml of lysis buffer, and 10 μl thereof were mixed with 90 μl of lysis buffer and 100 μl of 6 × loading buffer. […]
(In general: Immunoblotting shows a protein as a band on a membrane.)

For assay [4], the target named is T2, ctSqt1.52C-(His)6 (Chaetomium thermophilum).
T2 chain: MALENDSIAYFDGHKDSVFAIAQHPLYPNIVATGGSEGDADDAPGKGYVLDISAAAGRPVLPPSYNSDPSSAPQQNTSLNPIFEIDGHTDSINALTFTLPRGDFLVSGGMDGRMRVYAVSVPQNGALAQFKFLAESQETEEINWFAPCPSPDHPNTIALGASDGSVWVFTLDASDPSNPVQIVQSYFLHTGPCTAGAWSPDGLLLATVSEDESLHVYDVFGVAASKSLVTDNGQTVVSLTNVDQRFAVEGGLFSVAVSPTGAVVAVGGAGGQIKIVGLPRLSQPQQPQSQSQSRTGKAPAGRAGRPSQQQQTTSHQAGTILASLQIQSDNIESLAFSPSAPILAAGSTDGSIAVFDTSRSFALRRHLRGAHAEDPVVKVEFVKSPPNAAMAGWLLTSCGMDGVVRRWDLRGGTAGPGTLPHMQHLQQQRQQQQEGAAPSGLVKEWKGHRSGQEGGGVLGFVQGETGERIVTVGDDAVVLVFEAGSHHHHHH
Nature of the assay: ITC; 200 μl ctSqt1.52C (10 μM) in the cell, 2 μl injections of 100 μM peptide, 25 °C; 20 mM HEPES–NaOH (pH 7.5), 200 mM NaCl, 20 mM KCl, 20 mM MgCl2; One Set of Sites model; approximate Kd.

For assay [5], the target named is T2, ctSqt1.52C-(His)6. Nature of the assay: ITC.
In assay [6] the target is T3, Sqt1.53C-(His)6 (S. cerevisiae, UniProt P35184 53-431).
T3 chain: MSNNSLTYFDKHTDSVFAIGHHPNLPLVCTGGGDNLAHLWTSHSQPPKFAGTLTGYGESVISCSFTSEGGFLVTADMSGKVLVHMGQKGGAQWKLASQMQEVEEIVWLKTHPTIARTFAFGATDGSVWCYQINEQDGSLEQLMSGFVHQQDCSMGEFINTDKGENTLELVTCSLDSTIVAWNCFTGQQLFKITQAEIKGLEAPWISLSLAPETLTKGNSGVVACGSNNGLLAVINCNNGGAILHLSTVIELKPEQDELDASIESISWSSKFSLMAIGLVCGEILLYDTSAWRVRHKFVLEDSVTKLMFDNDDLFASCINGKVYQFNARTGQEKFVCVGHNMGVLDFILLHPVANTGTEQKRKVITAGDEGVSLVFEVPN
Nature of the assay: ITC.

In assay [7] the target is T4, Sqt1.53C-(His)6 (S. cerevisiae, UniProt P35184 53-431).
T4 construct: Sqt1, S. cerevisiae, residues 53–431 (WD-repeat β-propeller domain); the ITC methods name only 'ScSqt1.53C'; the only free Sqt1.53C whose purification is described is Sqt1.53C-(His)6; also called ScSqt1.53C; source: E. coli Rosetta(DE3), purified (Ni-NTA, size-exclusion chromatography)
T4 sequence (looked up): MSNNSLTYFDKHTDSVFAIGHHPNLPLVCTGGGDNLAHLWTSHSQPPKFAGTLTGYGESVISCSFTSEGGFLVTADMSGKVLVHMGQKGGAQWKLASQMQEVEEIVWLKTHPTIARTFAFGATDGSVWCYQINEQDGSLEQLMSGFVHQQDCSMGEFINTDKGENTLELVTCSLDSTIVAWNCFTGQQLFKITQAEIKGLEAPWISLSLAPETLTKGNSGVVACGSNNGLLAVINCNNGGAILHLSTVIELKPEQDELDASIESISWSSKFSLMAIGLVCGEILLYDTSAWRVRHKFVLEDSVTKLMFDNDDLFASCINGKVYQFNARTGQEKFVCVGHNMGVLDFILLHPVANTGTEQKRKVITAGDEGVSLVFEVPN
Nature of the assay: ITC; 200 μl ScSqt1.53C (100 μM) in the cell, 2 μl injections of 1 mM peptide, 15 °C; 20 mM HEPES–NaOH (pH 7.5), 200 mM NaCl, 20 mM KCl, 20 mM MgCl2; One Set of Sites model; approximate Kd. To be noted: both partners purified.

As for MARRPARCYRYQKNKPYPKS [ScL10-N(1-20)], in assay [1], the K is recorded as 2.33E7±1.79E7, the N is on record as 1.09±0.00692, the ΔH is −1.101E4 +/−158.6 and the ΔS is listed as −4.45.

As to “amino acids 1–20 of Rpl10: amino acids 1–20 of Rpl10, Y2H bait fused to G4BD (MARRPARCYRYQKNKPYPKS; also: fused to Gal4 DNA-binding domain; UniProt P41805 1-20, looked up, fragment)”, in assay [2], the “Y2H interaction with Sqt1” value is “sufficient to mediate the interaction with Sqt1”.

As for “L10-N: N-terminal residues of Rpl10 (general term; co-crystals and pull-downs use co-expressed Rpl10(1–20)-(His)6) (MARRPARCYRYQKNKPYPKS; not fully specified)”, in assay [3], the “co-purification with / interaction with Sqt1” value is “required and sufficient for a robust interaction both with full-length Sqt1 and its β-propeller domain”.

In assay [1], ARRPARCYRYQKNKPYPKS [ScL10-N(2–20)] showed a K of 4.78E7±2.57E7, an N of 1.076±0.0048, a ΔH of −1.187E4±102.9 and a ΔS of −6.02. The “preference of Sqt1 for the L10-N peptide lacking Met1” value in assay [1] (vs peptide containing Met1, S. cerevisiae) was “only a slight preference”.

B1: first 64 amino acids of Rpl10: first 64 amino acids of Rpl10, Y2H bait (protein, UniProt P41805 1-64, looked up, fragment)
chain: MARRPARCYRYQKNKPYPKSRYNRAVPDSKIRIYDLGKKKATVDEFPLCVHLVSNELEQLSSEA
modifications: Y2H bait
notes: first 64 amino acids of Rpl10, Y2H bait
On to B1, for which the “Y2H interaction with Sqt1” value in assay [2] was “binds”.

B2: ctRpl10(1–20) peptide (peptide)
peptide: MARRPARCYRYCKNKPYPKS
The Kd is the concentration at which binding is half-saturated. Higher therefore signals lower affinity. For the molecule B2, the dissociation constant Kd in assay [4] was 442 nM. Besides, the Ka in assay [5] was determined as 2.26e+06 M⁻¹.

B3: Rpl10(2–20) peptide (peptide)
peptide: ARRPARCYRYQKNKPYPKS
notes: Rpl10 (uL16), S. cerevisiae, N-terminal 19 amino acids without the N-terminal methionine; free amino group at the N terminus, free acid group at the C terminus; also called ScL10-N peptide lacking Met1 (amino acids 2–20); source: synthetic peptide (peptides&elephants)
In assay [6], B3 displayed a Ka of 4.78e+07 M⁻¹. In addition, the dissociation constant (Kd) in assay [7] is approximately 21 nM.

B4: Rpl10(1–20) peptide (peptide)
peptide: MARRPARCYRYQKNKPYPKS
notes: Rpl10 (uL16), S. cerevisiae, N-terminal 20 amino acids; free amino group at the N terminus, free acid group at the C terminus; also called ScL10-N peptide including Met1 (amino acids 1–20); source: synthetic peptide (peptides&elephants)
On to B4, for which the Ka in assay [6] was determined as 2.33e+07 M⁻¹. Moreover, the Kd in assay [7] is approximately 43 nM.

B5: ctRpl10(2–20) peptide (peptide)
peptide: ARRPARCYRYCKNKPYPKS
With B5, in assay [4], the dissociation constant (Kd) came to 35 nM. This molecule also yielded a Ka in assay [5] of 2.82e+07 M⁻¹.

B6: Arg10 to glutamate: Rpl10 variant, Arg10 mutated to glutamate (protein, UniProt P41805 2-221, looked up, variant R10E)
Large ribosomal subunit …: ARRPARCYEYQKNKPYPKSRYNRAVPDSKIRIYDLGKKKATVDEFPLCVHLVSNELEQLSSEALEAARICANKYMTTVSGRDAFHLRVRVHPFHVLRINKMLSCAGADRLQQGMRGAWGKPHGLAARVDIGQIIFSVRTKDSNKDVVVEGLRRARYKFPGQQKIILSKKWGFTNLDRPEYLKKREAGEVKDDGAFVKFLSKKGSLENNIREFPEYFAAQA
For the molecule B6, the “Y2H interaction with Sqt1” value in assay [2] is given as “abolished”.

B7: Arg4 to glutamate: Rpl10 variant, substitution of Arg4 to glutamate (protein, UniProt P41805 2-221, looked up, variant R4E)
Large ribosomal subunit …: AREPARCYRYQKNKPYPKSRYNRAVPDSKIRIYDLGKKKATVDEFPLCVHLVSNELEQLSSEALEAARICANKYMTTVSGRDAFHLRVRVHPFHVLRINKMLSCAGADRLQQGMRGAWGKPHGLAARVDIGQIIFSVRTKDSNKDVVVEGLRRARYKFPGQQKIILSKKWGFTNLDRPEYLKKREAGEVKDDGAFVKFLSKKGSLENNIREFPEYFAAQA
Take B7: in assay [2], the “Y2H interaction with Sqt1” value is on record as “only slightly reduced the interaction with Sqt1”.
